# Reference: patent US20180311124A1, “CLIMBAZOLE MICROCAPSULE AND HAIR CARE COMPOSITION COMPRISING SURFACTANT AND CLIMBAZOLE” (priority 2015, published 2018)
# Read-outs that look alike come from different tables or passages of the source.
# Legend:
# [1] = tested on: M. Furfur; assay: ZOI test comparing with PS latex (Example 5); type: cell-based, Malassezia furfur; settings: ruptured by rubbing; 1 g shampoo of table 3 diluted with 3.9 g water and 0.1 g model sebum
# Procedure: Zone of Inhibition (ZOI) Method • 1. L&N agar plates were appropriately labelled. • 2. 0.25 ml or 1 ml of quarter strength inoculum was pipetted onto the surface of each plate. • 3. The inoculum was spread evenly over the whole surface of the plates using a sterile spreader. • 4. Filter paper discs were added, in triplicate to the control plate and plates labelled 1 to 5 unruptured and left for 30 minutes in order to soak up any moisture from the agar. • 5. 15 μl of each (diluted, unruptured) formulation were pipetted onto each of the 3 discs in the appropriate agar plate. The liquid was allowed to soak into the disc. • 6. An additional disc was placed over the original discs in the control and 1 to 5 unruptured plates and the liquid allowed to soak into the additional discs. • 7. The discs from the previously ruptured samples were added in triplicate to separate Leeming and Notman agar plates and allowed to absorb moisture from the plates. • 8. […] Any zone of inhibition observed was measured and recorded.
# The efficacy of climbazole microcapsules on the growth of M. Furfur measured using Zone of Inhibition (ZOI) when the microcapsules had been ruptured by simple rubbing to simulate hair washing was tested both for the solvent containing core shell microcapsules according to the invention and the latex particles according to the prior art. […]
# [2] = manufacturer's published literature; cited from earlier work
# [3] = Screen of perfume components, perfume mixtures and oils for ability to solubilise climbazole
# Source text: A number of perfume components, perfume mixtures and oils considered to be safe to use on scalp were screened to evaluate their ability to solubilise climbazole. Because emulsion polymerisation also encapsulates the solvent an efficient solvent is needed to get a high loading of climbazole into a microcapsule.
compound,measurement,setting,value
"CC(C)(C)C(=O)C(Oc1ccc(Cl)cc1)n1ccnc1 (racemic) [climbazole, (RS)-1-(4-Chlorophenoxy)-1-imidazol-1-yl-3,3-dimethylbutan-2-one]",Ruptured mean ZOI (mm),[1],1.00^1 mm
same,solubility,[2],"soluble in alcohol, glycols, surfactants and certain perfume oils"
CCOC(=O)C=Cc1ccccc1 [Ethyl Cinnamate],ability to solubilise climbazole,[3]; solvent screened at the solvent:climbazole ratios tested,failed to solubilise it at any ratio tested
CC(=O)OCc1ccccc1 [Benzyl Acetate],ratio of solvent to climbazole,[3],5:1
Coconut oil,ability to solubilise climbazole,[3],failed to solubilise it at any ratio tested
CC(O)CO (stereo not drawn) [propylene glycol],ability to solubilise climbazole,[3],failed to solubilise it at any ratio tested
